The values below are quoted from earlier work in patent publication US20130303466A1, “Chemosensory Receptor Ligand-Based Therapies” (ELCELYX THERAPEUTICS, INC., priority 2010, published 2013).

The first series concerns gut hormone release. The conditions noted are these: humans, instillation into the duodenum.
For the compound `OC[C@H]1O[C@H](O[C@]2(CCl)O[C@H](CCl)[C@@H](O)[C@@H]2O)[C@H](O)[C@@H](O)[C@H]1Cl` [sucralose], the gut hormone release result is on record as “no effect”.

A further series addresses T1, sweet receptor (Homo sapiens, UniProt Q7RTX0+Q8TE23).
T1 sequence (Q8TE23 20-839): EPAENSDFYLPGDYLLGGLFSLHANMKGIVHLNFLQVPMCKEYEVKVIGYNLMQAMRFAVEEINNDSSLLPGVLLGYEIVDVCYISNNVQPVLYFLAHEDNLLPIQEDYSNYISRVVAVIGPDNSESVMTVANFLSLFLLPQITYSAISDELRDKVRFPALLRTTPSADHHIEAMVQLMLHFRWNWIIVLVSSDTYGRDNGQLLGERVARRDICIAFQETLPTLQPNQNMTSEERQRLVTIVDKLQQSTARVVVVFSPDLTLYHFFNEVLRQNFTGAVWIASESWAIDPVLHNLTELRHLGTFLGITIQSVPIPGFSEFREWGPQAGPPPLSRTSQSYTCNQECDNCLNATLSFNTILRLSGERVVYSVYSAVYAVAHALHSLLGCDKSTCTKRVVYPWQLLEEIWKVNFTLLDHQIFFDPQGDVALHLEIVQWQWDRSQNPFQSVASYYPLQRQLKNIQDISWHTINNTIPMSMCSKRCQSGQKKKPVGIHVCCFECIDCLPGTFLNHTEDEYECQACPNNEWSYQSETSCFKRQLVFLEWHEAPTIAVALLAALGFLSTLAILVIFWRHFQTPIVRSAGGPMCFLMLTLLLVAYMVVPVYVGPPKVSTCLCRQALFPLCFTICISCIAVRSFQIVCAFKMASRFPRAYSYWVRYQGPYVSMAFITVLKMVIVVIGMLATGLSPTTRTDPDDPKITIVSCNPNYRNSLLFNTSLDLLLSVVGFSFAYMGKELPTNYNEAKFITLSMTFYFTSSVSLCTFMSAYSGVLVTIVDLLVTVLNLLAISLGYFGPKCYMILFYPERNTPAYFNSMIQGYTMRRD
T1 sequence (Q7RTX0 21-852): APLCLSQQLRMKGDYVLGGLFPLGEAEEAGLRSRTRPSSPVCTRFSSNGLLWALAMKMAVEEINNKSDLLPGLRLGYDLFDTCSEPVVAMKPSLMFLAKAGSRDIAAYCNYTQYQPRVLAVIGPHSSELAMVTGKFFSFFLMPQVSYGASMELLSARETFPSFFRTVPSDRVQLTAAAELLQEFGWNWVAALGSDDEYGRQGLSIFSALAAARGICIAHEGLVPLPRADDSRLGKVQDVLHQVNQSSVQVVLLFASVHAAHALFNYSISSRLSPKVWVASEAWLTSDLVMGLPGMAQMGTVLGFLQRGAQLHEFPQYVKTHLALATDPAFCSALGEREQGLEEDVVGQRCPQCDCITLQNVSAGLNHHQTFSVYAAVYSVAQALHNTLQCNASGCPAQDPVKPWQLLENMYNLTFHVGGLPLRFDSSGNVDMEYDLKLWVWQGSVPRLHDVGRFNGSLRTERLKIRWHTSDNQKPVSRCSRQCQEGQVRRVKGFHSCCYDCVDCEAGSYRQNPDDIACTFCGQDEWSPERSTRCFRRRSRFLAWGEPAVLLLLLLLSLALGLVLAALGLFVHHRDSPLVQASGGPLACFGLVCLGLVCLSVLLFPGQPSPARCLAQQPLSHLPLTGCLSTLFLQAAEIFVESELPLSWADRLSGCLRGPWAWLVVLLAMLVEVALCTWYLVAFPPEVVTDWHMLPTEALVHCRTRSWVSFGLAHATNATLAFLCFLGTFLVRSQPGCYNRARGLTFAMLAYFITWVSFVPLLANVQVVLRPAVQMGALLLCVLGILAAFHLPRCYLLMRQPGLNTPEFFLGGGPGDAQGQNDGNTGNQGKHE
The conditions noted are these: relative sweetness on a weight comparison basis to sucrose (= 1.0); ranges: relative sweetness varied with the concentration of sucrose; adapted from Kim et al., 2002.
As to `CC1(C)C[C@H]2C3=CC[C@@H]4[C@@]5(C)CC[C@H](O[C@@H]6O[C@H](CO[C@@H]7OC[C@H](O)[C@H](O)[C@H]7O[C@@H]7OC[C@@H](O)[C@H](O)[C@H]7O)[C@@H](O)[C@H](O)[C@H]6O)C(C)(C)[C@@H]5CC[C@@]4(C)[C@]3(C)C[C@@H](O)[C@@]23C[C@@H]1OC3=O` [Albiziasaponin A (50), Albiziasaponin A], the Sweetness/potency is listed as 5.
Regarding `COc1ccc([C@H]2Cc3cccc(O)c3C(=O)O2)cc1O` [Phyllodulcin (3), Phyllodulcin], the Sweetness/potency is 400.
`COc1c(O)cc2c(c1O)C(=O)[C@H](OC(C)=O)[C@@H](c1ccc(O)cc1)O2` [(2R,3R)-2,3-Dihydro-5,7,4′-trihydroxy-6-methoxy-3-O-acetylflavonol]: the Sweetness/potency is on record as 20.
On to `CC1(C(=O)O)C=C2C3CCC4C5(CO)CCC(OC6OC(C(=O)O)C(O)C(O)C6OC6OC(C(=O)O)C(O)C(O)C6O)C(C)(C)C5CCC4(C)C3(C)CCC2(C)CC1` (centres unmarked) [Periandrin III (59), Periandrin III], for which the Sweetness/potency was 92.
In the case of `O=C/C=C/c1ccccc1` [Trans-Cinnamaldehyde (79), Trans-Cinnamaldehyde], the Sweetness/potency was 50.
With “Cyclocaryoside I [Cyclocaryoside I (48)]”, the Sweetness/potency is given as 250.
For `CC1=CC[C@@H]([C@@H](C)[C@H]2CC[C@@]3(C)[C@@H]4CC[C@H]5[C@](C)(C(=O)O)[C@@H](O[C@@H]6O[C@H](CO)[C@@H](O)[C@H](O)[C@H]6O[C@@H]6O[C@H](C(=O)O)[C@@H](O)[C@H](O)[C@H]6O)CC[C@@]56C[C@@]46CC[C@]23C)OC1=O` [Abrusoside D (45), Abrusoside D], the Sweetness/potency is 75.
Consider “Pterocaryoside A [Pterocaryoside A (62)]”, for which the Sweetness/potency is given as 50.
For the compound Baiyunoside [Baiyunoside (30)], the Sweetness/potency is reported as 500.
On to Periandrin II [Periandrin II (58)], for which the Sweetness/potency is 95.
On to `CC[C@@H](C)C(=O)O[C@@H](C)[C@]1(O)CC[C@]2(O)[C@@H]3CC[C@H]4C[C@@H](O[C@@H]5C[C@H](O)[C@H](O[C@H]6C[C@H](OC)[C@H](O[C@H]7C[C@@H](OC)[C@H](O[C@H]8C[C@@H](OC)[C@H](O[C@@H]9O[C@H](C)[C@@H](O[C@@H]%10O[C@H](CO)[C@@H](O)[C@H](O)[C@H]%10O)[C@H](OC)[C@H]9O)[C@@H](C)O8)[C@@H](C)O7)[C@@H](C)O6)[C@@H](C)O5)CC[C@]4(C)[C@H]3C[C@@H](OC(C)=O)[C@]12C` [Telosmoside A15 (74), Telosmoside A15], for which the Sweetness/potency is 1000.
On to `C=C(C)C1CC=C(/C=N/O)CC1` (centres unmarked) [Perillartine (10), Perillartine], for which the Sweetness/potency is reported as 370.
Turning to `C/C=C/c1ccc(OC)cc1` [trans-Anethole(78), trans-Anethole], the Sweetness/potency is reported as 13.
For `CC1(C(=O)O)CCC2(C)CCC3(C)C(=CC(=O)C4C5(C)CCC(OC6OC(C(=O)O)C(O)C(O)C6OC6OCC(O)(CO)C6O)C(C)(C)C5CCC43C)C2C1` (centres unmarked) [Apioglycyrrhizin (55), Apioglycyrrhizin], the Sweetness/potency is given as 300.
On to `COC(=O)[C@H]1O[C@@H](O[C@H]2[C@H](O[C@H]3CC[C@]45C[C@]46CC[C@]4(C)[C@@H]([C@H](C)[C@@H]7CC=C(C)C(=O)O7)CC[C@@]4(C)[C@@H]6CC[C@H]5[C@]3(C)C(=O)O)O[C@H](CO)[C@@H](O)[C@@H]2O)[C@H](O)[C@@H](O)[C@@H]1O` [Abrusoside B (43), Abrusoside B], for which the Sweetness/potency is given as 100.
With “Carnosifloside V [Carnosifloside V (35)]”, the Sweetness/potency was 51.
Consider `CC1(C(=O)O)C=C2C3CCC4C5(C=O)CCC(OC6OC(C(=O)O)C(O)C(O)C6OC6OCC(O)C(O)C6O)C(C)(C)C5CCC4(C)C3(C)CCC2(C)CC1` (centres unmarked) [Periandrin V (61), Periandrin V], for which the Sweetness/potency is on record as 220.
Thaumatin: the Sweetness/potency was 1,600.

In a further series the test system is GLP-1. Particulars: rats; with administration of a DPP-IV inhibitor.
Consider `OCCN1C[C@H](O)[C@@H](O)[C@H](O)[C@H]1CO` [miglitol], for which the “increase in GLP-1” value is listed as “synergistic”.
